These results are taken from patent publication US7098204B2 (C.N.R.S., priority 1999, dated 2006).

In brackets after ≈: the same amount, converted by molar mass. A value given as a limit tells only on which side of the number the result lay.

The subject of series [1] is CDK1/cyclin B. Briefly: Cyclin B release from immobilised CDK1/cyclin B, Western blot. The series is classed as binding, starfish. The following applies: high HD concentrations, 30 min., beads washed. As to the method:
Proteins bound to p9^CKShs1-Sepharose beads (starfish CDK1/cyclin B) were denatured with 2× Laemmli sample buffer. Samples were run on 10% SDS-polyacrylamide gels. Proteins were transferred from the gel to a 0.1 μm nitrocellulose sheet in a milliblot-SDE system (Millipore) for 30 min. at 2.5 mA/cm^2 in transfer buffer. Subsequently, the filter was blocked with 5% low fat milk in TBST for 1 hour. The filter was then washed with TBST and incubated for 1 hour with the first antibodies (anti-PSTAIRE, 1:2000; anti-cyclin B, 1:1000). After 4 washes (1×20 min., 3×5 min.) with TBST, the nitrocellulose sheet was treated for 1 hour with horseradish peroxidase-coupled secondary antibodies diluted in TBST (1:1000). The filter was then washed 5 times (1×20 min., 4×5 min.) with TBST and analysed by enhanced chemioluminescence with ECL detection reagents and hyperfilm MP.
To investigate the mechanism of HD action, kinetic experiments were performed by varying both ATP levels and HD concentrations (FIG. 6A). […] Enzyme activities were assayed as described under the Experimental Procedures section. Results illustrated by FIG. 6A: 1/v vs 1/ATP primary plot. ATP concentrations in the reaction mixture varied from 0.05 to 0.25 mM, concentration of histone H1 was kept constant at 0.7 mg/ml. […] Apparent inhibition constant (Ki) is indicated by an arrow.
(In general: In western blotting, separated proteins are transferred to a membrane and probed.)

For series [2], the target named is protein kinase C ε (Homo sapiens, UniProt Q02156). Briefly: protein kinase C ε assay. The series is classed as biochemical. Conditions: 15 μM ATP. As to the method: (§1) Kinases activities were assayed in Buffer A or C (unless otherwise stated), at 30° C., at a final ATP concentration of 15 μM. Blank values were subtracted and activities calculated as pmoles of phosphate incorporated for a 10 min. incubation (usually expressed in % of the maximal activity, i.e. without inhibitors). Controls were performed with appropriate dilutions of Me2SO. In some cases phosphorylation of the substrate was assessed by autoradiography after SDS-PAGE. IC50 values were estimated from the dose-response curves. • CDK1/cyclin B was extracted in homogenisation buffer from M phase starfish (Marthasterias glacialis) oocytes and purified by affinity chromatography on p9^CKShs1-Sepharose beads, from which it was eluted by free p9^CKShs1 as described. The kinase activity was assayed in buffer C, with 1 mg histone H1/ml, in the presence of 15 μM [γ-^32P] ATP (3,000 Ci/mmol; 1 mCi/ml) in a final volume of 30 μl. After 10 min. incubation at 30° C., 25 μl aliquots of supernatant were spotted onto 2.5×3 cm pieces of Whatman P81 phosphocellulose paper, and, 20 sec. later, the filters were washed five times (for at least 5 min. each time) in a solution of 10 ml phosphoric acid/liter of water. The wet filters were counted in the presence of 1 ml ACS (Amersham) scintillation fluid. • GSK-3β was either purified from rabbit muscle or expressed in and purified from insect Sf9 cells. […]

Series [3] deals with kidney, A498. Briefly: Human cancer cell line A498 proliferation. The series is classed as cell-based.
Series [4] deals with ASK-γ (plant GSK-3) (Arabidopsis thaliana, UniProt P43289). Briefly: ASK-γ kinase assay. The series is classed as biochemical. As to the method: as §1
Series [5] deals with protein kinase C β1 (Homo sapiens, UniProt P05771). Briefly: protein kinase C β1 assay. The series is classed as biochemical. The following applies: 15 μM ATP. As to the method: as §1
Series [6] concerns HT29-18-C1 cells. Briefly: Trypan blue dye exclusion, HT29-18-C1. The series is classed as cell-based, human. As to the method:
HT29-18-C1 cells were synchronised in G1 by serum deprivation. 5% FCS was added at time 0 and cells were simultaneously treated (o) or not (o) exposed to 10 μM HD. During 24 h and thereafter cultured in 5% FCS-containing medium. Cell number was determined every 12 h for a 72 h period using a hemocytometer. The kinetics of growth inhibition are given on FIG. 9A. […] Serum-treated cells (time 0) were exposed to various HD concentrations and counted after 24 h. The results are given on FIG. 9B. The number of non-serum stimulated cells ( ? ) is indicated for comparison. […] Trypan blue dye exclusion indicated little toxicity associated with 10 and 80 μM HD at 24 h (>95% and 90% viability, respectively). This antiproliferative effect of HD appears to be reversible. In fact, cells slowly began to proliferate again after 72 h culture.

The target of series [7] is c-abl tyrosine kinase (Abelson murine leukemia virus, UniProt P00521). Briefly: c-abl tyrosine kinase assay. Conditions: 15 μM ATP. The series is classed as biochemical. As to the method:
as §1

The target in series [8] is topoisomerase II α (Homo sapiens, UniProt P11388). Briefly: topoisomerase II α assay. The series is classed as biochemical. The following applies: −(x) = no effect at the highest dose tested (in parentheses). As to the method: Enzyme activities were assayed as described in the Experimental Procedures section, in the presence of increasing HD concentrations. IC50's were calculated from the dose-response curves.−, no effect at the highest dose tested (in parentheses).

In series [9] the test system is colon, KM20L2. Briefly: Human cancer cell line KM20L2 proliferation. The series is classed as cell-based. Conditions: KM-20L2.

Chain of ASK-γ (plant GSK-3) (P43289 whole entry): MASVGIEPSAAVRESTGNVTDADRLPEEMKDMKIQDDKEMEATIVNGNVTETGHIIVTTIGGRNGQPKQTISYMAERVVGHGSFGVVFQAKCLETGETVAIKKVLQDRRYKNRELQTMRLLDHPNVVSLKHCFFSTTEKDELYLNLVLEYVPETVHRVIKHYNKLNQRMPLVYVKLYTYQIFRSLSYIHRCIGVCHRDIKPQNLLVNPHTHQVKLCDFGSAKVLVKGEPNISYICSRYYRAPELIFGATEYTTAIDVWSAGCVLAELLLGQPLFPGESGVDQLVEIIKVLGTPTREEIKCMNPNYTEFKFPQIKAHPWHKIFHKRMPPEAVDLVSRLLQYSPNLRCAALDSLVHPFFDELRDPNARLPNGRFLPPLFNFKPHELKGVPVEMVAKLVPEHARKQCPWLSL
Chain of protein kinase C β1 (P05771 whole entry): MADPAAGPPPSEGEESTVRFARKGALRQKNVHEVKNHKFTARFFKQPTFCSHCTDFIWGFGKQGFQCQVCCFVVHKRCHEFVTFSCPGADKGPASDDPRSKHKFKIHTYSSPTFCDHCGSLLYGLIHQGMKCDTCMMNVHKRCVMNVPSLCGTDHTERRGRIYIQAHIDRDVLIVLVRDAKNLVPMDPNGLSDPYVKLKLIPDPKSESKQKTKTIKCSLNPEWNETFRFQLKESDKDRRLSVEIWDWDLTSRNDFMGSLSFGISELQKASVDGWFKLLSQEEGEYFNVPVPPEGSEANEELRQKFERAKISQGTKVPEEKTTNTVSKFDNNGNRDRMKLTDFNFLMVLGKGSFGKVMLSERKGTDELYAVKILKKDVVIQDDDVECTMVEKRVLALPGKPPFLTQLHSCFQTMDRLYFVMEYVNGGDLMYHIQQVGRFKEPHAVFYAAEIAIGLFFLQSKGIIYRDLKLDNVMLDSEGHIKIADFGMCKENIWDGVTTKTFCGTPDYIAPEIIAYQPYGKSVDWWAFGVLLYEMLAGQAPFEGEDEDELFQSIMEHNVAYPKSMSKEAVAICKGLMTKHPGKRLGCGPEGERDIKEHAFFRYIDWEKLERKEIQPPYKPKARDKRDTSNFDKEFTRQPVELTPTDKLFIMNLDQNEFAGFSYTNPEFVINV
Chain of topoisomerase II α (P11388 whole entry): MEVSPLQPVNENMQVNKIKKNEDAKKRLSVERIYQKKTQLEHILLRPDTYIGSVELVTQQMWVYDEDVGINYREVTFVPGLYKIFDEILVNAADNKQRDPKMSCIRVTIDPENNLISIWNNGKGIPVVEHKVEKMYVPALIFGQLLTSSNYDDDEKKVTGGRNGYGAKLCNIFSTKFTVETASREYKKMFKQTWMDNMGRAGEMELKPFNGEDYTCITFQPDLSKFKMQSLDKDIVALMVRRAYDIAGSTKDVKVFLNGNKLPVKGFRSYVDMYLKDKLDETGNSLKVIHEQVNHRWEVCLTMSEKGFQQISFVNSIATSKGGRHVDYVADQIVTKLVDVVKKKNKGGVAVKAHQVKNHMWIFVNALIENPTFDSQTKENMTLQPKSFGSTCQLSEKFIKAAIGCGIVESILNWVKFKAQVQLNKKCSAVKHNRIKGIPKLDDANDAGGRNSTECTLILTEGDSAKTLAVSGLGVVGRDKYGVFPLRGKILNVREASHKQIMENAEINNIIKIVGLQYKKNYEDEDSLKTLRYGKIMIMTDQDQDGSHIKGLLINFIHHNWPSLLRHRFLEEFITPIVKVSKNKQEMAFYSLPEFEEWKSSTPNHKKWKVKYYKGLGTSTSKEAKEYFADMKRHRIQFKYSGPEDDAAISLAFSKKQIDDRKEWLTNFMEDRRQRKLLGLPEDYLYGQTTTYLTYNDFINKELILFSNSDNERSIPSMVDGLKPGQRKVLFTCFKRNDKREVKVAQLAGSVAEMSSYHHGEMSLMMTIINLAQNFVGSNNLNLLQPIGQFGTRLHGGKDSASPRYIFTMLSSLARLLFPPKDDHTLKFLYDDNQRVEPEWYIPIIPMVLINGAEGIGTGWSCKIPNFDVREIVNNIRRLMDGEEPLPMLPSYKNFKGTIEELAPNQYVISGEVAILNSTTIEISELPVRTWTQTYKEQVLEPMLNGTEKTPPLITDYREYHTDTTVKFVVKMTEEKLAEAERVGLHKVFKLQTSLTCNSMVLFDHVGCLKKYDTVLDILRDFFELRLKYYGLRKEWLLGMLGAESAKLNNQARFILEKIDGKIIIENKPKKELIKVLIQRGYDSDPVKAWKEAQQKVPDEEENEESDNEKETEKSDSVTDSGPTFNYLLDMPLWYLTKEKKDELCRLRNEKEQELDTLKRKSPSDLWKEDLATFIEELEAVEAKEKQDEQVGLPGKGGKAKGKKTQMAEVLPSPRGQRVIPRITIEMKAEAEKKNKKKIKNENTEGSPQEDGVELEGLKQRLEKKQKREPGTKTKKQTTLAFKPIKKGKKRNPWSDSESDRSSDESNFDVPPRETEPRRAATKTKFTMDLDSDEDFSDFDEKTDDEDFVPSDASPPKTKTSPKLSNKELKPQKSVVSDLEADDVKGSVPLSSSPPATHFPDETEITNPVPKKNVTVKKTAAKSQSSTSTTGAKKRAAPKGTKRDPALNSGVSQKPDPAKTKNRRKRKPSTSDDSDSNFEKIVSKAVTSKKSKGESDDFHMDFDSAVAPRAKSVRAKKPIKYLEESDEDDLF
Chain of c-abl tyrosine kinase (P00521 whole entry): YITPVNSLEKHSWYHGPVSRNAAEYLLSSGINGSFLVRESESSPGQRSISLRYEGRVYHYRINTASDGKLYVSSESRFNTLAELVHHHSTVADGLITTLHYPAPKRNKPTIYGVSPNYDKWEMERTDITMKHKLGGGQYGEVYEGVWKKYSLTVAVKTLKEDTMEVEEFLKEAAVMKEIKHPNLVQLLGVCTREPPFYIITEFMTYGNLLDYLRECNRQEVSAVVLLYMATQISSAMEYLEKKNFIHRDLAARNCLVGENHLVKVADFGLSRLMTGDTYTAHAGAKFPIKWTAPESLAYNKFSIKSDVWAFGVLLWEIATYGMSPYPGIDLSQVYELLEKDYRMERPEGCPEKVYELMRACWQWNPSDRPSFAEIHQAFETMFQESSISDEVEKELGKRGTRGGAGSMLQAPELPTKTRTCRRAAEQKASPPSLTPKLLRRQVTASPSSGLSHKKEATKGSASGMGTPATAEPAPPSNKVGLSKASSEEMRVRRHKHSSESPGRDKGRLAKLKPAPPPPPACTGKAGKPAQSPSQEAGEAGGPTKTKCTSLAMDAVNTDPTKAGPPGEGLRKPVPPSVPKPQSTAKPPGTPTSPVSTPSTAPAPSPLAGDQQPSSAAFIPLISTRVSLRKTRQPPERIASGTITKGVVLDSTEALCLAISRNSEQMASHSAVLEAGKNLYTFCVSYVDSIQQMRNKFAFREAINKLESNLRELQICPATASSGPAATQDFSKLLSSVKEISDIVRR
Chain of protein kinase C ε (Q02156 whole entry): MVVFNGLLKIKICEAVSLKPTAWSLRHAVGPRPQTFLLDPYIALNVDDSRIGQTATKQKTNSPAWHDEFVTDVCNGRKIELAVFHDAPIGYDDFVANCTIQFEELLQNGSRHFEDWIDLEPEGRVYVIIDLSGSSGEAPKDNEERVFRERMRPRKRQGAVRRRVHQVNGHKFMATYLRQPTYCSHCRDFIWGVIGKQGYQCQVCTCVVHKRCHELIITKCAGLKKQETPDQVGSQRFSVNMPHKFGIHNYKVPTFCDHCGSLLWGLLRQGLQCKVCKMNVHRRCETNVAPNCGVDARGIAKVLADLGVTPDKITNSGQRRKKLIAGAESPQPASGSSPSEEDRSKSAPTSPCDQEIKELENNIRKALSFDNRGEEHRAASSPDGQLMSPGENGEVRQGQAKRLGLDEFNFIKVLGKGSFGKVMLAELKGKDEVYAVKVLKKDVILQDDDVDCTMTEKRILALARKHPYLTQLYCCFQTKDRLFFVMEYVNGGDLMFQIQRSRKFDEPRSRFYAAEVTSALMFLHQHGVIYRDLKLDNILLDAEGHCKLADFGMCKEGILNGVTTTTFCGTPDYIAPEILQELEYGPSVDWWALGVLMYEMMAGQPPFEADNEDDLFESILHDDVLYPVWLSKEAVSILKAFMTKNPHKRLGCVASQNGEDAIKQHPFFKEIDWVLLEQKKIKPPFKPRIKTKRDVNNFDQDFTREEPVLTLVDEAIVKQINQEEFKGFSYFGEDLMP

With `NC1=NC(=O)C(=C2CCNC(=O)c3[nH]c(Br)cc32)N1` [hymenialdisine, 4-(2-amino-4-oxo-2-imidazolin-5-ylidene)-2-bromo-4,5,6,7-tetrahydropyrrolo (2,3-c) azepine-8-one], the “displacement of cyclin B from CDK1” value in series [1] is “does not act by displacing cyclin B from CDK1”. Moreover, the IC50 in [2] is 6.5 µM; in series [3] it was 24.7 µg/mL (≈ 76.2 µM); in series [4], 0.08 µM; in series [5], 1.2 µM; in [7] it was 4 µM; in [8], more than 10 µM. In [9], the IC50 is 8.5 µg/mL (≈ 26.2 µM). For the same compound, the “viability (trypan blue)” value in [6] (10 μM HD at 24 h) was more than 95%; in series [6] (80 μM HD at 24 h), 90%.

One may read the IC50 as the concentration that inhibits the measured activity by half.
